The values below come from patent US8835420B2, “Azaindole derivatives” (Takeda Pharmaceutical Company Limited, priority 2012, dated 2014).

This test addresses T1, PI3Kδ (recombinant GST-tagged PIK3CD co-expressed with PIK3R1, p85α) (Homo sapiens, UniProt O00329).
T1 construct: The protein is full length and co-expressed with untagged PIK3R1; GST; purchased Invitrogen PV5274
Nature of the test: PI3Kδ inhibition, modified PIK3CD Adapta TR-FRET kinase assay. Type of test: biochemical. As to conditions: 2 μM ATP, 50 μM PIP2, 1 hour at room temperature, pIC50 = -log(IC50 in M). How it is done:
The activity of compounds as PI3Kδ inhibitors may be determined by a variety of methods, including in vitro and in vivo methods. The following in vitro assay measures a test compound's ability to inhibit PI3Kδ-mediated phosphorylation of PIP2 and ATP.
Recombinant GST-tagged PIK3CD is purchased from Invitrogen (Part Number: PV5274). The protein is full length and co-expressed with untagged PIK3R1, phosphoinositide-3-kinase regulatory subunit 1 (p85α). The protein is stored at −20° C. in 50 mM TRIS (pH 7.5), 150 mM NaCl, 0.5 mM EDTA, 0.02% Triton® X-100, 2 mM DTT, and 50% glycerol.
A modified PIK3CD Adapta® assay (Invitrogen, Carlsbad, Calif.) is used to measure PI3Kδ inhibition of the example compounds. The assay has two phases. In the first phase, kinase reaction components, which include the enzyme (PIK3CD), substrates (PIP2, ATP), test compound (inhibitor), and assay buffer are added to each well, and the reaction is allowed to incubate for a pre-determined period of time. After reaction, a detection solution composed of a Eu (europium)-labeled anti-ADP antibody, Alexa Fluor® 647-labeled ADP tracer, and EDTA (to stop the kinase reaction) is added to each assay well. In this second phase, ADP formed by the kinase reaction displaces the Alexa Fluor® 647-labeled ADP tracer from the antibody, resulting in a decrease in time-resolved fluorescence resonance energy transfer (TR-FRET) signal. In the presence of the inhibitor, the amount of ADP formed by the kinase reaction is reduced, and the resulting intact antibody-tracer interaction maintains a high TR-FRET signal.
The assay uses black Greiner® 384-well plates (784076). The reaction buffer contains 50 mM Hepes (pH 7.5), 3 mM MgCl2, 1 mM EGTA, 100 mM NaCl, 0.03% CHAPS; 2 mM DTT is added fresh prior to each experiment. Enzyme (4 μL, estimated 1.5 nM in buffer) is first added to the wells of the plate. Next, test compounds (2 μL) from a source plate (5% dilution plate) are introduced into the wells. The final DMSO concentration in each assay well is 1%. The dilution plate contains 5% DMSO in the bottom half of columns 23 and 24, which serve as negative (non-inhibited) controls; the top half contains a known inhibitor concentration (positive control) that gives >98% inhibition of the kinase reaction. Other wells contain test compounds serially diluted across the plate 11 times for a total of 12 data points. The kinase reactions are carried out at room temperature and are initiated by the addition of 4 μL of solution containing 2 μM ATP and 50 μM PIP2. Each reaction is stopped after 1 hour±10 minutes via addition of 10 μL stop solution, which contains a final assay concentration of 3 nM Alexa Fluor® 647-labeled ADP tracer, 2 nM Eu-anti-ADP Antibody, and 10 mM EDTA. After allowing the solutions to equilibrate for 30±10 minutes, a PHERAstar plate reader is used to excite the Eu donor (at 337 nm) and to detect emission from the Alexa Fluor® 647 at 665 nm. This emission signal is referenced or “ratioed” to the emission from Eu at 620 nm. The emission ratio (665 nm/620 nm) from each well is collected and converted to percent conversion using a standard curve for the assay conditions: % conversion=B*(C+A−emission ratio)/(emission ratio−C), where “A” and “C” are the maximum and minimum values of the emission ratio obtained from the standard curve of emission ratio vs. % conversion (ATP-ADP); “B” is the emission ratio corresponding to the % conversion at the EC50 value for the ADP Tracer—Eu anti-ADP antibody complex. The percent inhibition for a given inhibitor concentration is computed from % conversion for the reaction and for the positive and negative controls. Corresponding IC50 values are calculated by non-linear curve fitting of the compound concentrations and values of percent inhibition to the standard IC50 equation and are reported as pIC50, i.e., −log(IC50), where IC50 is molar concentration at 50% inhibition.

Structures are written as SMILES.

T1 sequence (O00329 whole entry): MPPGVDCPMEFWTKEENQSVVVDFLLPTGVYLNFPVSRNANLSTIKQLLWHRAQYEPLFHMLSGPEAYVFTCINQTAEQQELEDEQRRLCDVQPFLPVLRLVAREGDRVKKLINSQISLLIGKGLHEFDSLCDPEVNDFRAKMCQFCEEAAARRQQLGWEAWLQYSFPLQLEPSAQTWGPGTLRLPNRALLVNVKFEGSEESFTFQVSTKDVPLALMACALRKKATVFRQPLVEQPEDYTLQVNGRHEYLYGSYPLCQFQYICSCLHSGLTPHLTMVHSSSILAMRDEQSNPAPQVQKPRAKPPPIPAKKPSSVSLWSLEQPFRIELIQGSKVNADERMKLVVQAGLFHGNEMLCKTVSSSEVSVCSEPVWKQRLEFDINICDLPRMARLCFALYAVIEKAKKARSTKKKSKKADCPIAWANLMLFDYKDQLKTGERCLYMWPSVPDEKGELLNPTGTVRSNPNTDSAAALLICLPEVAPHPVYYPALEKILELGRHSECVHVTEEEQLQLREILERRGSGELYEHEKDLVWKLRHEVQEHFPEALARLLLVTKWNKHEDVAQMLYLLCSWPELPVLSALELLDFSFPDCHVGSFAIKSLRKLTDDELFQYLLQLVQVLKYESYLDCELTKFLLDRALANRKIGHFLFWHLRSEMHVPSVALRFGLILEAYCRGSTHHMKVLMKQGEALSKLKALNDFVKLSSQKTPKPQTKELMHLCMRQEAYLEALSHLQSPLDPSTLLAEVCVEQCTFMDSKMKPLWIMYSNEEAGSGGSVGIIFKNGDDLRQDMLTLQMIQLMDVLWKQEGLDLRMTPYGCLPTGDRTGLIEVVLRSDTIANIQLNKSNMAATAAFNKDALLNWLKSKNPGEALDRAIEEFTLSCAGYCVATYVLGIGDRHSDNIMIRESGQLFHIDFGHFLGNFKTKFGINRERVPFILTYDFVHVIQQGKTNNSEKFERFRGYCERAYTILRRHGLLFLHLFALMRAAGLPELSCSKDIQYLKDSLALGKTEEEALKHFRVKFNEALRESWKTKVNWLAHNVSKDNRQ
T1 sequence (P27986 whole entry partner): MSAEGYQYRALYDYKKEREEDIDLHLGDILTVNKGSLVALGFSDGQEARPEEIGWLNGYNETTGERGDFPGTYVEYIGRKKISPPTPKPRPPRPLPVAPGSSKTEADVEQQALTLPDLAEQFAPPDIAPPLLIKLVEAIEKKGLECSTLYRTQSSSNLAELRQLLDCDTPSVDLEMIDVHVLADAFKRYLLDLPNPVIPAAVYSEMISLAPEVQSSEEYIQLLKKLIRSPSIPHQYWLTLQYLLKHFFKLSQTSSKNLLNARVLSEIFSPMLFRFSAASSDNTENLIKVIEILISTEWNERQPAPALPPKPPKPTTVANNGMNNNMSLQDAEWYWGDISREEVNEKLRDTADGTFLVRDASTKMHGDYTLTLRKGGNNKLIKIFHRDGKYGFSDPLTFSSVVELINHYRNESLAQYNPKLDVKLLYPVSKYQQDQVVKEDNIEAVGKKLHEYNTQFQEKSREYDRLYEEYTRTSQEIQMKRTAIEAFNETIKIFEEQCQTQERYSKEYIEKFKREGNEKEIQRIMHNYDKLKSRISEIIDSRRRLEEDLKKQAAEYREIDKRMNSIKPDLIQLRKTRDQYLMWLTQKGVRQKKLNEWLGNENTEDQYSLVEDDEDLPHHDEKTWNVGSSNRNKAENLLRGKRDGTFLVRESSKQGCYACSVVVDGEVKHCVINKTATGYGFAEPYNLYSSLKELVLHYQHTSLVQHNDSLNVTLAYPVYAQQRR

For the compound `CC(Nc1nc(N)nc(N)c1Cl)c1nc2ccn(C)c2cc1N1CC(O)C1` (stereo not shown) [Example 40, 1-(5-(1-((2,6-Diamino-5-chloropyrimidin-4-yl)amino)ethyl)-1-methyl-1H-pyrrolo[3,2-b]pyridin-6-yl)azetidin-3-ol], the IC50 was 79.4 nM.
